According to patent publication US20200131669A1, “CYCLIC PEPTIDE COMPOUND HAVING HIGH MEMBRANE PERMEABILITY, AND LIBRARY CONTAINING SAME” (Chugai Seiyaku Kabushiki Kaisha, priority 2017, published 2020):
Read-outs that look alike come from different tables or passages of the source. Starred links: 1 amine or outer side, 2 acyl side, 3 side chain; linkers in the order of their positions; H or OH if unused. Positions of bridges follow the written chain, without caps; N, C: chain ends. Non-standard residues stand in square brackets, D forms with d. Residues, ends and D or L forms follow the SMILES beside them. *: point of attachment. Phe(4-CF3) = N[C@@H](Cc1ccc(C(F)(F)F)cc1)C(=O)O; NMePhe(4-Cl) = CN[C@@H](Cc1ccc(Cl)cc1)C(=O)O; X17 = O=C([C@H](CCCC(O)C(F)(F)F)N[*:1])[*:2]; X5 = O=C(C(CCc1noc(=O)[nH]1)N[*:1])[*:2]; Gly(NCH2CH2Ph) = O=C(O)CNCCc1ccccc1; Hyp = O=C(O)[C@@H]1C[C@@H](O)CN1; NMeF = CN[C@@H](Cc1ccccc1)C(=O)O; NMeGABA = CN(CCCC(=O)[*:2])[*:1]; NMeI = CC[C@H](C)[C@H](NC)C(=O)O; hPhe = N[C@@H](CCc1ccccc1)C(=O)O; aThr = C[C@H](O)[C@H](N)C(=O)O; NMeL = CN[C@@H](CC(C)C)C(=O)O; NMeV = CN[C@H](C(=O)O)C(C)C; NMeAbu = CC[C@H](NC)C(=O)O; NPentylGly = CCCCCNCC(=O)O; Pip = O=C(O)[C@@H]1CCCCN1; NMeA = CN[C@@H](C)C(=O)O; Piperidide = C1CCN(*)CC1; dNMeA = CN[C@H](C)C(=O)O; CH2CMe2OH = CC(C)(O)C*; NBuGly = CCCCNCC(=O)O; NPrGly = CCCNCC(=O)O; Sar = CNCC(=O)O; tBu = CC(C)(C)*

Test: Caco-2 membrane permeability, improved method as used in the following Examples (96-well, 20 to 24 h preincubation)
Assay type: in vitro ADME
Conditions: for Papp A→B at 180 min: human
Method in brief: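 Caco-2 monolayers were grown three weeks and preincubated 20–24 h at 37 °C with compound in DMEM+FaSSIF (1% DMSO) apically. The assay then used compound in FaSSIF/HBSS (1% DMSO, pH 6.0) apically and HBSS with 4% BSA (pH 7.4) basally. Basal samples were taken at 180 min for LC/MS, and Papp (cm/sec) was calculated.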

Row | SMILES | Papp A→B at 180 min (Caco-2, Caco-2) | further results
1 | CCO[C@@H]1C[C@H]2C(=O)N3CCCC[C@H]3C(=O)N[C@@H](COC(C)(C)C)C(=O)N(C)[C@@H](CC(C)C)C(=O)N[C@@H]([C@@H](C)O)C(=O)N(C)[C@@H](CC(C)C)C(=O)N(C)[C@@H](CC(C)C)C(=O)N(C)[C@@H](CC(C)C)C(=O)N[C@H](C(=O)N3CCCCC3)CC(=O)N[C@H](C(C)C)C(=O)N(C)[C@@H]([C@@H](C)CC)C(=O)N2C1 [pd383] ([dV][NMeI][Hyp](Et)[Pip]S(tBu)[NMeL]T[NMeL][NMeL][NMeL]D-Piperidide; lactam N-11) | 28 nm/s | 
2 | CC(C)C[C@H]1C(=O)N[C@H](C(=O)N2CCCCC2)CC(=O)N[C@H](C)C(=O)N(C)[C@@H](CC(C)C)C(=O)N2CCCC[C@H]2C(=O)N(C)[C@@H](CC(C)C)C(=O)N2CCCC[C@H]2C(=O)N(C)[C@@H](C)C(=O)N[C@@H]([C@@H](C)O)C(=O)N(C)[C@@H](Cc2ccccc2)C(=O)N[C@@H](Cc2ccc(C(F)(F)F)cc2)C(=O)N1C [pd141] ([dA][NMeL][Pip][NMeL][Pip][NMeA]T[NMeF][Phe(4-CF3)][NMeL]D-Piperidide; lactam N-11) |  | Papp A→B at 180 min (Caco-2, Caco-2 (cm/sec)): 21 nm/s
3 | CCCCN1CC(=O)N(C)[C@@H](Cc2ccccc2)C(=O)N(C)[C@@H](CC(C)C)C(=O)N[C@@H](CC(C)C)C(=O)N(C)[C@@H](CC(C)C)C(=O)N[C@H](C(=O)N2CCCCC2)CC(=O)N(C)CC(=O)N(C)[C@@H](CC(C)C)C(=O)N[C@@H](C(C)C)C(=O)N(C)[C@@H](CC(C)C)C(=O)NC(CCc2noc(=O)[nH]2)C1=O (stereo partly drawn) [pd488] ([Sar][NMeL]V[NMeL][X5][NBuGly][NMeF][NMeL]L[NMeL]D-Piperidide; lactam N-11) |  | Papp A→B at 180 min (Papp, Caco-2 membrane permeability, improved method, read-out: Caco-2): 16 nm/s
4 | CC[C@H](C)[C@@H]1NC(=O)[C@H](Cc2ccc(Cl)cc2)N(C)C(=O)CN(C)C(=O)C[C@@H](C(=O)N2CCCCC2)NC(=O)[C@H](C(C)C)N(C)C(=O)[C@H](COC(C)(C)C)NC(=O)[C@H](CC(C)C)N(C)C(=O)[C@H](Cc2ccccc2)N(C)C(=O)CN(C)C(=O)[C@H]([C@@H](C)O)NC(=O)[C@H](CC(C)C)N(C)C1=O [pd176] ([Sar][NMePhe(4-Cl)]I[NMeL]T[Sar][NMeF][NMeL]S(tBu)[NMeV]D-Piperidide; lactam N-11) |  | Papp A→B at 180 min (Caco-2, Caco-2 (cm/sec)): 12 nm/s
5 | CCCCCN1CC(=O)N(C)[C@@H](Cc2ccccc2)C(=O)N[C@@H](CC(C)C)C(=O)N(C)[C@@H](CC)C(=O)N[C@@H]([C@@H](C)O)C(=O)N(C)CC(=O)N(C)[C@@H](Cc2ccccc2)C(=O)N(C)[C@@H](CC)C(=O)N[C@@H](COC(C)(C)C)C(=O)N(C)[C@@H](CC(C)C)C(=O)N[C@H](C(=O)N2CCCCC2)CC1=O [pd405] ([NPentylGly][NMeF]L[NMeAbu]T[Sar][NMeF][NMeAbu]S(tBu)[NMeL]D-Piperidide; lactam N-11) | 22 nm/s | 
6 | CC[C@H](C)[C@@H]1NC(=O)[C@H](C(C)C)N(C)C(=O)CCCN(C)C(=O)C[C@@H](C(=O)N2CCCCC2)NC(=O)[C@H](CC(C)C)N(C)C(=O)[C@H](C)N(C)C(=O)[C@H](Cc2ccc(O)cc2)NC(=O)[C@H](CC(C)C)N(C)C(=O)[C@H](COC(C)(C)C)NC(=O)[C@H](Cc2ccccc2)N(C)C(=O)[C@H](CC(C)C)N(C)C1=O [pd125] ([NMeGABA][NMeV]I[NMeL][NMeF]S(tBu)[NMeL]Y[NMeA][NMeL]D-Piperidide; lactam N-11) |  | Papp A→B at 180 min (Caco-2, Caco-2 (cm/sec)): 4.5 nm/s
7 | CC[C@H](C)[C@@H]1NC(=O)[C@H](CC(C)C)N(C)C(=O)[C@H](CCCC(O)C(F)(F)F)NC(=O)[C@H](Cc2ccccc2)N(C)C(=O)CN(C)C(=O)C[C@@H](C(=O)N2CCCCC2)NC(=O)[C@H](CC(C)C)N(C)C(=O)[C@H](COC(C)(C)C)NC(=O)[C@H](CC(C)C)N(C)C(=O)[C@H](Cc2ccccc2)N(C)C(=O)CN(C)C1=O (stereo partly drawn) [pd502] ([Sar][NMeF][X17][NMeL]I[Sar][NMeF][NMeL]S(tBu)[NMeL]D-Piperidide; lactam N-11) |  | Papp A→B (Caco-2, Caco-2): 10 nm/s
8 | CC[C@H](C)[C@@H]1NC(=O)[C@H](CC(C)C)N(C)C(=O)[C@@H](C)NC(=O)C[C@@H](C(=O)N2CCCCC2)NC(=O)[C@H](CC)N(C)C(=O)[C@H](Cc2ccccc2)N(C)C(=O)[C@H](COC(C)(C)C)NC(=O)[C@H](CC(C)C)N(C)C(=O)[C@H](CC)N(C)C(=O)[C@H]([C@@H](C)O)NC(=O)CN(CCc2ccccc2)C1=O [pd414] ([dA][NMeL]I[Gly(NCH2CH2Ph)]T[NMeAbu][NMeL]S(tBu)[NMeF][NMeAbu]D-Piperidide; lactam N-11) | 16 nm/s | 
9 | CC[C@H](C)[C@@H]1NC(=O)[C@H](CC(C)C)N(C)C(=O)[C@H](C)N(C)C(=O)[C@H]([C@H](C)O)NC(=O)[C@H](Cc2ccccc2)N(C)C(=O)[C@H](C)N(C)C(=O)[C@@H](C)N(C)C(=O)C[C@@H](C(=O)N(C)[C@@H](Cc2ccccc2)C(=O)N(C)[C@@H](Cc2ccccc2)C(=O)N[C@@H](C)C(=O)N2CCCCC2)NC(=O)[C@H](C(C)C)N(C)C(=O)[C@H](CC(C)C)N(C)C1=O [pd201] ([dNMeA][NMeA][NMeF][aThr][NMeA][NMeL]I[NMeL][NMeV]D[NMeF][NMeF]A-Piperidide; lactam N-10) |  | Papp A→B at 180 min (Caco-2, read-out: Caco-2): 23 nm/s
10 | CCCN1CC(=O)N(C)[C@@H](CC(C)C)C(=O)N[C@H](C(=O)N2CCCCC2)CC(=O)N(C)[C@@H](C)C(=O)N[C@@H](COCC(C)(C)O)C(=O)N(C)[C@@H](CC(C)C)C(=O)N(C)[C@@H](Cc2ccccc2)C(=O)N[C@@H](CC(C)C)C(=O)N(C)[C@@H](Cc2ccccc2)C(=O)N(C)[C@@H]([C@@H](C)CC)C(=O)N[C@@H]([C@@H](C)O)C1=O [pd428] ([NMeA]S(CH2CMe2OH)[NMeL][NMeF]L[NMeF][NMeI]T[NPrGly][NMeL]D-Piperidide; lactam N-11) | 28 nm/s | 
11 | CCO[C@@H]1C[C@H]2C(=O)N(C)[C@@H](CC(C)C)C(=O)N[C@@H]([C@@H](C)CC)C(=O)N(C)[C@@H](CC(C)C)C(=O)N[C@@H](CC(C)C)C(=O)N[C@H](C(=O)N3CCCCC3)CC(=O)N(C)[C@H](C)C(=O)N(C)[C@@H](CC(C)C)C(=O)N[C@@H](CC(C)C)C(=O)N(C)[C@@H](CC(C)C)C(=O)N[C@@H]([C@@H](C)O)C(=O)N2C1 [pd371] ([dNMeA][NMeL]L[NMeL]T[Hyp](Et)[NMeL]I[NMeL]LD-Piperidide; lactam N-11) | 34 nm/s | 
12 | CCO[C@@H]1C[C@H]2C(=O)N(C)[C@@H](CC(C)C)C(=O)N[C@@H](COC(C)(C)C)C(=O)N3CCC[C@H]3C(=O)N[C@@H]([C@@H](C)O)C(=O)N(C)[C@@H](CC(C)C)C(=O)N(C)[C@@H](CC(C)C)C(=O)N(C)[C@@H](CC(C)C)C(=O)N[C@H](C(=O)N3CCCCC3)CC(=O)N[C@H](CC(C)C)C(=O)N(C)[C@@H]([C@@H](C)CC)C(=O)N2C1 [pd384] ([dL][NMeI][Hyp](Et)[NMeL]S(tBu)PT[NMeL][NMeL][NMeL]D-Piperidide; lactam N-11) | 33 nm/s | 
13 | CC(C)C[C@H]1C(=O)N(C)[C@@H](Cc2ccccc2)C(=O)N[C@@H](COC(C)(C)C)C(=O)N(C)[C@@H](C)C(=O)N[C@H](C(=O)N2CCCCC2)CC(=O)N(C)[C@@H](C)C(=O)N(C)[C@@H](Cc2ccccc2)C(=O)N[C@@H](CCc2ccccc2)C(=O)N(C)[C@@H](CC(C)C)C(=O)N[C@@H]([C@@H](C)O)C(=O)N(C)CC(=O)N1C [pd310] ([NMeA][NMeF][hPhe][NMeL]T[Sar][NMeL][NMeF]S(tBu)[NMeA]D-Piperidide; lactam N-11) | 16 nm/s | 
